SMILES strings stand for the structures.

Common to all, as to assay: absorbance of reduced form, protection from air oxidation, one-site fit
Assay type in all cases: binding

For one test, the target named is T1, cytochrome c.
T1 construct: gene CYCS; commercial reduced cytochrome c with heme
The settings on record: PBS, 2 mM NH4OAc, ambient, 5 days; apparent, for retaining ferrous heme.

Another test addresses T2, hemoglobin (Homo sapiens, UniProt P68871+P69905).
T2 construct: gene HBA1; commercial lyophilized hemoglobin with heme

For the next test, the target named is T3, myoglobin (Homo sapiens, UniProt P02144).
T3 construct: gene MB; commercial protein with heme
T3 sequence (P02144 2-154): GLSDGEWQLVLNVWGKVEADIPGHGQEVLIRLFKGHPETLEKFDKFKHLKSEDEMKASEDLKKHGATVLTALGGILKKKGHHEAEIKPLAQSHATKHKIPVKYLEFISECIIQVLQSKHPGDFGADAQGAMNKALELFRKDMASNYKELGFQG

T2 sequence (P69905 2-142): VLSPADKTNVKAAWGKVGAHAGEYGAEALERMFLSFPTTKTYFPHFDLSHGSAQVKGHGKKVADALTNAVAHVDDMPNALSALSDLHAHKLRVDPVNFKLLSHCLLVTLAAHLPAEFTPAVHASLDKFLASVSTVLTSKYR
T2 sequence (P68871 2-147): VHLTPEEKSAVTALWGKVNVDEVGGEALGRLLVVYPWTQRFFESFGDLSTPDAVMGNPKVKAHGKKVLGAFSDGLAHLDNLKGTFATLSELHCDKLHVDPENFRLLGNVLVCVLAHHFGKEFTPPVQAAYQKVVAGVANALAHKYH

Turning to `CN(C)C(=N)NC(=N)N` [metformin], the figures for the Kd on cytochrome c, at hemoglobin and on myoglobin were 1150 µM, 860 µM and 570 µM, respectively.

Source of the values: publication PMC6385989, “Metformin Affects Heme Function as a Possible Mechanism of Action” (G3: Genes|Genomes|Genetics, 2018).
